According to ChEMBL document CHEMBL1201862, “PubChem BioAssay data set” (2004):
Active and inactive are the calls of the source.

Columns and labels:
[1] = viability loss in THP-1 monocytes – THP-1 cells, cytotoxicity control for Vif-APOBEC3G degradation inhibitor project, dose response (AID 1117359); assay type: functional; details: THP-1
HEK293 [2] = test: viability loss in HEK293T cells – cell-based, ATP luminescence, cherry-pick samples, cytotoxicity control, dose response (AID 687005); assay type: functional; details: Homo sapiens;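 further: cells exposed to compound for 48 hours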
[3] = viability loss in HEK293 cells – cell-based, plate reader, cherry-picked samples, cytotoxicity control, dose response (AID 743446); assay type: functional
[4] = A549 cell cytotoxicity, dose response, cytotoxicity control, plate reader, cherry-pick, antagonist series (AID 743412); assay type: functional, cell-based
HeLa = test: viability loss in HeLa cells – cell-based, ATP luminescence, cherry-pick samples, cytotoxicity control, dose response (AID 687004); assay type: functional; details: Homo sapiens
[5] = HEK293 Cytotoxicity Assay Measured in Cell-Based System Using Plate Reader - 7071-01_Inhibitor_Dose_CherryPick_Activity_Set2.; assay type: functional
[6] = blockers of bursicon-stimulated LGR2 cAMP reporter – cell-based, HEK293, CRE-luciferase reporter, cherry pick, set 2, dose response (AID 743343); assay type: functional;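 further: transfected cells were stimulated with diluted bursicon conditioned medium after compound addition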
[7] = blockade of melanocortin 4 receptor signaling – cell-based, plate reader, cherry pick, counter-screen for LGR2 antagonist project, dose response (AID 743444); assay type: functional;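 further: transfected HEK 293 cells stimulated with alpha-MSH peptide; potency of inhibitors of the alpha-MSH evoked signal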
HEK293 [8] = test: EBV LMP1 TES2 canonical NF-kB signalling blockers – cell-based, HEK293, luciferase, cherry-pick, dose response (AID 588343); assay type: functional; details: Homo sapiens
[9] = alpha-synuclein stem-loop luciferase translation blockers – H4 neuroglioma cells, luminescence, confirmation (AID 1988); assay type: functional, cell-based
[10] = molecular target: T1, Apoptotic protease-activating factor 1 (Homo sapiens, UniProt O14727); assay type: functional
T1 sequence (O14727 whole entry): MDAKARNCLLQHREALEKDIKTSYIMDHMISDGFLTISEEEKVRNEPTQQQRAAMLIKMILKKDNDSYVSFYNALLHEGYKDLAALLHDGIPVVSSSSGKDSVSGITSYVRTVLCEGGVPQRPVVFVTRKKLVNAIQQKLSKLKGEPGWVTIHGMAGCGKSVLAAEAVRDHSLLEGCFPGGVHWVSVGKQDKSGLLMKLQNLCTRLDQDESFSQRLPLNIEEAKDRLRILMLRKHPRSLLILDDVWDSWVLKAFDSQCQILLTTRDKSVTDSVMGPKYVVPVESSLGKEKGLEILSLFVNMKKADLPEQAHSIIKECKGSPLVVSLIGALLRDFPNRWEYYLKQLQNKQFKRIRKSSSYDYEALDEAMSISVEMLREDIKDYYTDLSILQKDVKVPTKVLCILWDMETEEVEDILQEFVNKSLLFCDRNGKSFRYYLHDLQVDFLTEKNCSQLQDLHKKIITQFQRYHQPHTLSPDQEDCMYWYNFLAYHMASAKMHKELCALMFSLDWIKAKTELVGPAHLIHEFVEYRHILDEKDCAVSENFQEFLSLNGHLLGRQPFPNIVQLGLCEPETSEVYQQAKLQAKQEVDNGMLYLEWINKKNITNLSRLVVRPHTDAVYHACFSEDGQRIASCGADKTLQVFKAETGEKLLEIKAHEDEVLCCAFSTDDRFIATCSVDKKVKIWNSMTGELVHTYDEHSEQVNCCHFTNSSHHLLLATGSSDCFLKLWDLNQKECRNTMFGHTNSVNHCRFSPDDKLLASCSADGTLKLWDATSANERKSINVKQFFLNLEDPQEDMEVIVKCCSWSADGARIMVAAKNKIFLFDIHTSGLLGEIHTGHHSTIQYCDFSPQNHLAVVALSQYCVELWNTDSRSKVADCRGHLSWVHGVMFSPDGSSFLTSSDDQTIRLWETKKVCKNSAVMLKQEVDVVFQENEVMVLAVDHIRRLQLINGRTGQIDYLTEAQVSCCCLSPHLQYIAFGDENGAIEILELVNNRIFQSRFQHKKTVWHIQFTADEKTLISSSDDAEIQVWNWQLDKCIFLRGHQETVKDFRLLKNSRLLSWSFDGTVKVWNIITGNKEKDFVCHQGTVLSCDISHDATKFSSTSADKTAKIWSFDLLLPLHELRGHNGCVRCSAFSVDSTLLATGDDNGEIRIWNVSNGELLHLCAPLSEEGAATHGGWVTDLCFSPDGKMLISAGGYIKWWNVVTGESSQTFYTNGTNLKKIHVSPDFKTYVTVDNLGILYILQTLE

[11] = Luminescence Cell-Based Dose Response HTS to Identify Inhibitors of 5'UTR Stem-Loop Driven Prion Protein mRNA Translation in H4 Neuroglioblastoma Cells. [Related pubchem assays: 1827 (Project Summary), 1813 (Primary HTS)]; assay type: functional
[12] = molecular target: T2, Voltage-gated N-type calcium channel alpha-1B subunit/Amyloid beta A4 precursor protein-binding family A member 1 (Homo sapiens, UniProt Q00975+Q02410); assay type: protein assay
T2 sequence (Q00975 whole entry): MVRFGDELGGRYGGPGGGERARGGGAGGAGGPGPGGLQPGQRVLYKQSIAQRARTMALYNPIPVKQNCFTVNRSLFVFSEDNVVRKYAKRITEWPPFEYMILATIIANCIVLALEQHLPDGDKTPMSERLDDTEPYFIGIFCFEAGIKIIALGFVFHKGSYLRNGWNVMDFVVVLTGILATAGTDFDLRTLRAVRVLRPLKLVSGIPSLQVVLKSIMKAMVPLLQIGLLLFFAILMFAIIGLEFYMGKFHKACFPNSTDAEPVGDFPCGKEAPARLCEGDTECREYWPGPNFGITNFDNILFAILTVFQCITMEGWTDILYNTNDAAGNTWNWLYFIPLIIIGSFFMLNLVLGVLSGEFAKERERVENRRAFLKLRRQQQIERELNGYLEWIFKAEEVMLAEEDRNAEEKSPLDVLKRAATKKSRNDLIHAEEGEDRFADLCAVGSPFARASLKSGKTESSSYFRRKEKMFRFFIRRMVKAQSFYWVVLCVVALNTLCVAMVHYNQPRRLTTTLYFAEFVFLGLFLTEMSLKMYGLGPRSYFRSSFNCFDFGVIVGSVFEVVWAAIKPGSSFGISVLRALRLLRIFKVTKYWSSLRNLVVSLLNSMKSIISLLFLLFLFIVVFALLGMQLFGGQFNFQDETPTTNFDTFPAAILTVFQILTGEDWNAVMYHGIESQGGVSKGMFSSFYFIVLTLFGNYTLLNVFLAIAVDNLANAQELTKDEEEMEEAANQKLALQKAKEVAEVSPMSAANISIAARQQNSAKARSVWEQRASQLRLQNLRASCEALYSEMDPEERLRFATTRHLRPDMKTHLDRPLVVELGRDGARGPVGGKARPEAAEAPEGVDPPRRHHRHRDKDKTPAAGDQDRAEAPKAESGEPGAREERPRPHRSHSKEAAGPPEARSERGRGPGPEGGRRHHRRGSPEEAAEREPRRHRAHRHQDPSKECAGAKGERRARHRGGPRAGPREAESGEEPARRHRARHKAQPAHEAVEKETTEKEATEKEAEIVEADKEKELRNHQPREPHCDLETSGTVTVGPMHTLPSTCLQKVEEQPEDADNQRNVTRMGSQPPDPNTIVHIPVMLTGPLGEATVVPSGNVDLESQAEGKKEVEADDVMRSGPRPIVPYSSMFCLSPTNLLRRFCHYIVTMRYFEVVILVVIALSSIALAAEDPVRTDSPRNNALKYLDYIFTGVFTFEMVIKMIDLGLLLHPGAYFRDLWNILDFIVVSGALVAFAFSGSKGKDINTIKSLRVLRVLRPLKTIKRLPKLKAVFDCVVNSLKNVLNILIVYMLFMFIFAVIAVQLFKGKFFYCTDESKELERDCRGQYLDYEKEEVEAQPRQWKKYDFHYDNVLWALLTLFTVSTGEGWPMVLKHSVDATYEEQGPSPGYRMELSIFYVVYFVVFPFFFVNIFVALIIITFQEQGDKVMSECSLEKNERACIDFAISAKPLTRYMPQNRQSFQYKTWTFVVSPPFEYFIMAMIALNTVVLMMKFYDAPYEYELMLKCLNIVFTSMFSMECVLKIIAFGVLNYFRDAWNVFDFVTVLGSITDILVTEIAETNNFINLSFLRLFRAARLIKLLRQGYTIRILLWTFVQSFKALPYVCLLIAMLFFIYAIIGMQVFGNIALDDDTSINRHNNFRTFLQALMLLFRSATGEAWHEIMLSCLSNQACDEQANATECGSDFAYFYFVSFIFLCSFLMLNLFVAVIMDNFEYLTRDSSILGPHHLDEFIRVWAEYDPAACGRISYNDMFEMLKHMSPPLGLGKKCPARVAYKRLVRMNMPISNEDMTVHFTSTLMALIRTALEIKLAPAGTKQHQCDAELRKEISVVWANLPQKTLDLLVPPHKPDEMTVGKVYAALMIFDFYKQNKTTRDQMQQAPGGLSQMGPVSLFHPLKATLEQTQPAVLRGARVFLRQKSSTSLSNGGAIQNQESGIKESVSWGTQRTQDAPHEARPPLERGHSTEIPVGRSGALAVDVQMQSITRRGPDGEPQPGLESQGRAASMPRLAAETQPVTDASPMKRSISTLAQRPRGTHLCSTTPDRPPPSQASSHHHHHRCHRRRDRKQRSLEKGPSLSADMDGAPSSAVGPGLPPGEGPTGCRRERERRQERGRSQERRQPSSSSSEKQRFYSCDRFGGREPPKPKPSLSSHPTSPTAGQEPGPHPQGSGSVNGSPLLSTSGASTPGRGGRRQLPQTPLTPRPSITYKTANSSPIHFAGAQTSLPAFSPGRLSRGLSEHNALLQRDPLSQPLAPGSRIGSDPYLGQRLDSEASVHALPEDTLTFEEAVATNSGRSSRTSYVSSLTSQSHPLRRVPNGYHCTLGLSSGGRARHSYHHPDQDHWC
T2 sequence (Q02410 whole entry): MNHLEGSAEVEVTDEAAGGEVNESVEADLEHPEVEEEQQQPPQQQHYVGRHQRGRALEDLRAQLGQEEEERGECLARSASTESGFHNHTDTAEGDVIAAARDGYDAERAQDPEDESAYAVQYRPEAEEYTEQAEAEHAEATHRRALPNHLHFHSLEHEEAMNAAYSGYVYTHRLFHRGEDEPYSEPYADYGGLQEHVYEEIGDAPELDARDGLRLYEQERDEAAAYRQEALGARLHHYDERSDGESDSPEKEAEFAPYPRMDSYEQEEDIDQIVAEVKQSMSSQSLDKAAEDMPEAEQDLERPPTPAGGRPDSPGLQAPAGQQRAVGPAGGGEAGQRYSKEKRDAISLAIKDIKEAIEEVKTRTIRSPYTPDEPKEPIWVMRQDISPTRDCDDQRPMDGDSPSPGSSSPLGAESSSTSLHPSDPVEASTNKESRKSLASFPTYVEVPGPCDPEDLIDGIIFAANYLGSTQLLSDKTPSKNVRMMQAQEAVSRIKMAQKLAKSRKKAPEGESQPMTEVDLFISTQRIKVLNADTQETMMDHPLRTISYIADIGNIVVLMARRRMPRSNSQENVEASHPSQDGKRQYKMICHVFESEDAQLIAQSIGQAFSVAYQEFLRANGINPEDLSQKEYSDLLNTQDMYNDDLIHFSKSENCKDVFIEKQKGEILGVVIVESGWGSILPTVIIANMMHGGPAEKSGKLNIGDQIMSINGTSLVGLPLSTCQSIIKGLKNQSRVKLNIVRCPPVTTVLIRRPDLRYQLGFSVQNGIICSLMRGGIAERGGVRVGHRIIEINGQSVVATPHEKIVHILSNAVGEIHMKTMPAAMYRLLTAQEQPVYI

[13] = molecular target: T3, Sentrin-specific protease 8 (Homo sapiens, UniProt Q96LD8); assay type: functional
T3 sequence (Q96LD8 whole entry): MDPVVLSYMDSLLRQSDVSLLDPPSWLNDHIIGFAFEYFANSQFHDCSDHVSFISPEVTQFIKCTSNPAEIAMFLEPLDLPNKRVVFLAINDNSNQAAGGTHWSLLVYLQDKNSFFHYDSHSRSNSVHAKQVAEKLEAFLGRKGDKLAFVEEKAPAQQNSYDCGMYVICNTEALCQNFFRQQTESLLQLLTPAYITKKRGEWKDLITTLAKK

[14] = molecular target: T3, Sentrin-specific protease 8; assay type: functional; remark: listed apart in the source
[15] = luciferase reporter signal suppression in cells – H4 neuroglioma cells, luminescence, dose response (AID 1990); assay type: functional, cell-based
[16] = molecular target: T2, Voltage-gated N-type calcium channel alpha-1B subunit/Amyloid beta A4 precursor protein-binding family A member 1; assay type: protein assay; remark: listed apart in the source
[17] = molecular target: 5-hydroxytryptamine receptor 2A (Mus musculus, UniProt P35363); assay type: functional, cell-based;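 further: CHO-K1 cells with tagged receptor and beta-arrestin; agonist potency measured as compound-induced activation of the receptor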
Sequence of 5-hydroxytryptamine receptor 2A (P35363 whole entry): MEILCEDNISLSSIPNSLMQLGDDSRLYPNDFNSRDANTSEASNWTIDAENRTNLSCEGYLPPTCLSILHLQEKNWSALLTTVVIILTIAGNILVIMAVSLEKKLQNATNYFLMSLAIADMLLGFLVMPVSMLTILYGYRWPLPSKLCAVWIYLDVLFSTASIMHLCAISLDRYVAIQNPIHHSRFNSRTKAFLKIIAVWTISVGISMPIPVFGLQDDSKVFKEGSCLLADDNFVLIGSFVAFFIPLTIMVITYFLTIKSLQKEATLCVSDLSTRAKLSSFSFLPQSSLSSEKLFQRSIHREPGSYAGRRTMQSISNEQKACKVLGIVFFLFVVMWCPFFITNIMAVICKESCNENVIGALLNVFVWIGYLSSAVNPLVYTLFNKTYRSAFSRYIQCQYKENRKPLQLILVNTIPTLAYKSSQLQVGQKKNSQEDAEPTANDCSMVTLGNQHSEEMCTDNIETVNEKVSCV

Mu-type opioid receptor = Mu-type opioid receptor (Homo sapiens, UniProt P35372); assay type: functional, cell-based;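 further: U2OS cells with beta-arrestin recruitment to OPRM1 by beta-gal complementation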
Sequence of Mu-type opioid receptor (P35372 whole entry): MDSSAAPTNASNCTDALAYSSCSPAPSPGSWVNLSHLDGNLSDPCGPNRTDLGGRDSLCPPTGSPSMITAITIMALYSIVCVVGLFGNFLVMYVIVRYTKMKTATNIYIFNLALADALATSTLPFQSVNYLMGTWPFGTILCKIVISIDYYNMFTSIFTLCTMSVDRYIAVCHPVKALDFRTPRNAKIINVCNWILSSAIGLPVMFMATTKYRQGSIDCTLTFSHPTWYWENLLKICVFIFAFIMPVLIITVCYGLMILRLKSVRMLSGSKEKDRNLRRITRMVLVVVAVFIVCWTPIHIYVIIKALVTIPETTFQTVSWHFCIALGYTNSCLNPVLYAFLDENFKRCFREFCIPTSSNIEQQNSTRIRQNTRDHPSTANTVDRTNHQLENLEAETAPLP

[18] = IC50 of Artemis nuclease activity blockers – biochemical, fluorescence intensity, dose response (AID 720701); assay type: functional;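 further: Artemis endonuclease enzyme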
[19] = off-target signal loss in HeLa-CEM21 co-culture – HeLa F-luc CTL cells, cherry-picked, counter-screen for HIV-1 Env fusion inhibitor project, dose response (AID 652040); assay type: functional, cell-based;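 further: potency for signal decrease marking cytotoxic or nonspecific inhibition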
[20] = blockers of HIV-1 envelope-mediated cell-cell fusion – cherry-pick, dose response (AID 652057); assay type: functional, cell-based
[21] = blockers of HIV-1 ZM109 envelope-driven cell-cell fusion – HeLa effector, CEM target cells, luciferase, cherry-pick, dose response (AID 652058); assay type: functional, cell-based;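 further: luciferase signal from HIV-1 Env mediated cell-cell fusion of effector and target cells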
[22] = HIV-1 AD8 envelope cell-cell fusion blockers – cherry-pick, dose response (AID 652062); assay type: functional, cell-based;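 further: luciferase signal from cell-cell fusion driven by HIV-1 clade B AD8 Env; potency is for inhibitors of fusion seen as a drop in luminescence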
[23] = molecular target: NAD-dependent protein deacylase sirtuin-5, mitochondrial (Homo sapiens, UniProt Q9NXA8); test: sirtuin-5 deacylation blockers, concentration series – biochemical, fluorescence imaging, cherry-pick, set 5, dose response (AID 720591);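 further: desuccinylation of succinyl peptide AMC substrate read as fluorescence after trypsin release; potency of inhibitors that lower fluorescence and may act on trypsin instead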
Sequence of NAD-dependent protein deacylase sirtuin-5, mitochondrial (Q9NXA8 whole entry): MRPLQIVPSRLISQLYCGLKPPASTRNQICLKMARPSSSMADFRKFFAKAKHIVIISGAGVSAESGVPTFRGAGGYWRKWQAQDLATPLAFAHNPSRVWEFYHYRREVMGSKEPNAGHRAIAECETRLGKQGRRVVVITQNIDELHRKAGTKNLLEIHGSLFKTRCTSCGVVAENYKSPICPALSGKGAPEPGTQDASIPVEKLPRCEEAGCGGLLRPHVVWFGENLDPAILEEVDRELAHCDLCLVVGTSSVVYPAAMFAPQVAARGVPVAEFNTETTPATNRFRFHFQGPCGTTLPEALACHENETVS

[24] = OVCAR-3 cell viability loss – plate reader, dry powder samples, PAX8 inhibitor project, dose response (AID 743044); assay type: functional, cell-based
[25] = IGROV1 cell killing – plate reader, dry powder samples, PAX8 inhibitor project, dose response (AID 743043); assay type: functional, cell-based; details: IGROV-1
Paired box protein Pax-8 = Paired box protein Pax-8 (Homo sapiens, UniProt Q06710); test: PAX8 transcriptional activity inhibition in RMG-I – RMG-I cells, luciferase, cherry-pick, dose response (AID 687027); assay type: functional, cell-based;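 further: luciferase reporter driven by Pax8 target thyroperoxidase promoter measured by SteadyGlo luminescence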
Sequence of Paired box protein Pax-8 (Q06710 whole entry): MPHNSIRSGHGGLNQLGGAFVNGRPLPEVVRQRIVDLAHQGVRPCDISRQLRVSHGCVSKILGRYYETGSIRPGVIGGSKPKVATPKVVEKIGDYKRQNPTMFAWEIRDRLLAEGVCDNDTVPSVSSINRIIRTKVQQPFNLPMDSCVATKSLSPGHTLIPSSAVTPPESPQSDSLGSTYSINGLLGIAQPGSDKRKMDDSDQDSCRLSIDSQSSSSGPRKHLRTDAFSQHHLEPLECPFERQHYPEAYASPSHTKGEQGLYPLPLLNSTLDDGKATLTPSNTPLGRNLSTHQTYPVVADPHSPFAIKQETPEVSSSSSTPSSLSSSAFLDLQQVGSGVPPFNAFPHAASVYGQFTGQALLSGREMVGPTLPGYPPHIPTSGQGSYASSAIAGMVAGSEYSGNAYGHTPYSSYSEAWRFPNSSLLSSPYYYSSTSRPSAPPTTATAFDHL

[26] = OVCAR8 cell viability loss – plate reader, dry powder samples, PAX8 project, dose response (AID 743197); assay type: functional, cell-based; details: OVCAR-8
[27] = P. falciparum Dd2 growth inhibitors, dose response, SYBR Green, cherry-picked samples (AID 1159567); assay type: functional, cell-based
[28] = toxicity to human hepatoma HepG2 cells – cell-based, cherry-picked samples, cytotoxicity control, dose response (AID 1159577); assay type: functional
[29] = growth inhibition of PfATP4-mutant resistant parasites – NITD609-resistant line, SYBR Green, dry powder, dose response (AID 1159571); assay type: functional, cell-based;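 further: parasites synchronized at ring stage by sorbitol before testing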
[30] = growth inhibition of yeast DHODH-expressing 3D7 parasites – SYBR Green, dry powder samples, dose response (AID 1159570); assay type: functional, cell-based;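 further: parasite growth measured after 72 hours of compound exposure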
[31] = Dd2 malaria parasite growth inhibition potency – SYBR Green, dry powder samples, dose response (AID 1159566); assay type: functional, cell-based;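 further: potency for growth inhibition with lower SYBR green DNA signal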

## CN(C)N1C(N)=C(C#N)C(c2cccnc2)C2=C1CCCC2=O (stereo not drawn)
[1]
  CC50: > 40 µM (active)

## Cc1ccc(C(=O)Nc2ccc3ncccc3c2)cc1
HEK293 [2]
  AC50: 20.5 µM (active)
[3]
  AC50: > 52 µM (inactive)
[4]
  AC50: > 52 µM (inactive)
HeLa
  AC50: > 52 µM (inactive)
[5]
  AC50: 20.5 µM (active)
[6]
  AC50: 1.96 µM (active)
[7]
  AC50: 3.88 µM (active)
HEK293 [8]
  AC50: 1.6 µM (active)

## CCOC(=O)c1nn(-c2ccc(C)c(C)c2)c(=O)c2c(N)scc12
[9]
  EC50: > 120 µM (not active)
[10]
  IC50: 42.2 µM (active)
[11]
  EC50: > 120 µM (not active)
[12]
  IC50: 9.97 µM (active)
[13]
  IC50: 5.63 µM (active)
[14]
  IC50: 5.03 µM (active)
[15]
  EC50: 13.8 µM (active)
[16]
  IC50: > 50 µM (inactive)

## COc1ccc(CN2CCN(C(=O)c3ccco3)CC2)cc1OCc1ccccc1
[17]
  EC50: 1.48 µM (active)
Mu-type opioid receptor
  EC50: 92.5 µM (inactive)

## O=C(Nc1cccc(C(F)(F)F)c1)c1ccc2nc(-c3ccco3)c(-c3ccco3)nc2c1
[10]
  IC50: 43.9 µM (active)
[18]
  IC50: > 20 µM (inactive)

## O=C(NC12CC3CC(CC(C3)C1)C2)OCCNC1CCCCC1
[19]
  AC50: 4.34 µM (active)
[20]
  AC50: 2.91 µM (active)
[21]
  AC50: 6.43 µM (active)
[22]
  AC50: 7.98 µM (active)

## CCn1c(N2CCN(S(=O)(=O)c3ccc(OC)cc3)CC2)nc2ccccc21
[17]
  EC50: 30 µM (inactive)
Mu-type opioid receptor
  EC50: 92.5 µM (inactive)

## CCCCC(=O)Nc1ccc(N2CCCC2)cc1
[18]
  IC50: > 20 µM (inactive)

## COc1ccc2ccccc2c1CN1CCN(C(=O)c2ccco2)CC1
[17]
  EC50: 1.77 µM (active)
Mu-type opioid receptor
  EC50: 92.5 µM (inactive)

## O=C(NCCO)Nc1ccc(Cl)cc1
[23]
  AC50: > 30 µM (inactive)

## Cc1c(C(=O)OCC(O)=C(C#N)c2nc3ccccc3[nH]2)oc2ccc(Br)cc12
[23]
  AC50: > 30 µM (inactive)

## Cc1ccc2c(c1)c1c3n2CCN(CCC#N)C3CCC1 (stereo not drawn)
[19]
  AC50: 1.89 µM (active)
[20]
  AC50: 12.9 µM (active)

## CC(C)NC(=O)Nc1ccc2c(c1)C(=O)N([C@@H](C)CO)C[C@@H](C)[C@@H](CN(C)S(=O)(=O)c1ccc(Cl)cc1)OCCCC[C@@H](C)O2
HEK293 [2]
  AC50: 20.6 µM (active)
[5]
  AC50: 20.6 µM (active)

## C/C=C/c1ccc([C@@H]2[C@H]3CN(C(=O)Nc4ccc(OC)cc4)CCCCN3[C@H]2CO)cc1
HEK293 [2]
  AC50: 24.4 µM (active)
HeLa
  AC50: > 52 µM (inactive)
[5]
  AC50: 24.4 µM (active)

## C[C@@H]1CN([C@H](C)CO)C(=O)c2cc(NC(=O)Nc3cccc4ccccc34)ccc2O[C@@H]1CN(C)C(=O)Nc1ccccc1
HeLa
  AC50: 22.8 µM (active)

## C[C@H]1CCCCO[C@@H](CN(C)Cc2ccc(C(F)(F)F)cc2)[C@@H](C)CN([C@@H](C)CO)C(=O)c2cc(NC(=O)Nc3ccc4c(c3)OCO4)ccc2O1
[24]
  AC50: 21.1 µM (active)
[25]
  AC50: 49.6 µM (active)
Paired box protein Pax-8
  AC50: 7.11 µM (active)
[26]
  AC50: 51.5 µM (active)

## COc1cccc(CN2C[C@@H]3N[C@H](C2)[C@@H]3c2ccc(-c3cccc(C#N)c3)cc2)c1
[27]
  AC50: 3.66 µM (active)
[28]
  AC50: 9.19 µM (active)

## Cc1ccc(S(=O)(=O)Nc2ccc3c(c2)CC(=O)N([C@H](C)CO)C[C@H](C)[C@H](CN(C)Cc2ccc(Cl)c(Cl)c2)O3)cc1
[3]
  AC50: > 47 µM (inactive)
[4]
  AC50: 24.7 µM (active)
[7]
  AC50: 32.4 µM (active)

## O=C(N/N=C/c1cccs1)c1cc(-c2ccc3ccccc3c2)[nH]n1
[18]
  IC50: > 20 µM (inactive)

## O=C(C1CC1)N1CC(=O)N2[C@H](CO)[C@H](c3ccc(C#CCc4ccccc4)cc3)[C@H]2C1
[27]
  AC50: 9.66 µM (active)
[28]
  AC50: > 39 µM (inactive)

## CN(C)C(=O)c1cccc(-c2cccc(-c3nc(C(=O)NC4CCCCC4)cc4c3[C@H](CCO)N([S@@+]([O-])C(C)(C)C)C4)c2)c1
[29]
  AC50: 0.933 µM (active)
[27]
  AC50: 2.05 µM (active)
[30]
  AC50: 1.32 µM (active)
[31]
  AC50: 0.736 µM (active)

## C[C@@H]1CN([C@H](C)CO)C(=O)c2cc(C#CCc3ccccc3)cnc2O[C@H]1CN(C)CC1CCCC1
[27]
  AC50: 1.91 µM (active)
[28]
  AC50: 13.5 µM (active)
